According to publication PMC12371487, “Phenylalkyl Acetophenones and Anacardic Acids from Knema oblongifolia with Synthetic Analogues as Anti-infectives and Antibacterial Agents” (ACS Bio & Med Chem Au, 2025):
≈ marks a conversion by molar mass, not a printed value. Where “and” joins values, the source holds several entries; their conditions need not be identical. Equal entries are not always repeated. Where two headings read alike, the source gives them in different places.

Columns and labels:
Type in all cases: cell-based
[1] = tested on: Staphylococcus aureus (Sa) Newman strain; assay: MIC determination in Mueller-Hinton broth (CLSI) on Sa; conditions: Mueller-Hinton broth, CLSI; for MIC: Staphylococcus aureus, NEWMAN, read-out: MIC on Sa
Protocol: MICs were determined in Mueller–Hinton (MH) broth according to CLSI guidelines and were repeated at least on three different occasions.
The Newman strain ofS. aureus and the UCBPP-PA14 strain ofP. aeruginosa were used in this study.

[2] = tested on: Mycobacterium marinum (Mm) in infection of Dictyostelium discoideum; assay: Dd-Mm infection assay: intracellular Mm growth (luminescence); conditions: Mm inside Dd, luminescence AUC over 72 h at 25 °C; 6-concentration curve, top 100 μM, 1:3 steps; IC50 interpolated
Protocol: (§1) Plant extracts, fractions, or isolated compounds were stored at −20 °C and wrapped in aluminum foil if necessary. All manipulations with extracts, fractions, or compounds were performed under a sterile hood. Extracts, fractions, and compounds were resuspended throughout in DMSO to best solubilize extracts with diverse constituents. Extracts, fractions, or compounds were added to the assay plate in a 1:100 dilution. Assay solutions of extracts, fractions, and compounds were prepared in 96-well plates, stored at −20 °C, and thawed before the experiment at room temperature or warmer with or without shaking/vortexing to obtain a clear assay solution. Extracts were tested at 25 μg/mL and purified compounds in a dose–response curve of 6 concentrations with 100 μM being the top concentration and a 1:3 dilution step between each testing concentration. Since fractions were not weighed individually, the injection mass was used to calculate an average mass per fraction and thus a nominal mass concentration. Fractions were tested at a nominal concentration of 10 μg/mL.
(§2) As described in Nitschke et al. and Mottet et al., Dd Ax2(ka) expressing mCherry from the act5 chromosomal locus was infected with Mm M strain expressing the lux operon (luxCDABE) , by spinoculation.
(§3) Briefly, the day before the experiment, Mm was cultivated in 7H9 broth (Becton Dickinson, Difco Middlebrook 7H9) supplemented with 10% OADC (Becton Dickinson) and 0.05% tyloxapol (Sigma-Aldrich) and 50 μg/mL kanamycin at 32 °C overnight with continuous shaking. Additionally, the day before the experiment, 10^7 amoebae were plated in HL5-C in a 10 cm Petri dish (Falcon). On the day of the experiment, a volume of the Mm culture corresponding to a multiplicity of infection of 25 with respect to the number of amoebae in the Petri dish was added to the semiconfluent amoebae monolayer. Subsequently, the Petri dishes were centrifuged twice at 500g, as described in Mottet et al. To remove extracellular bacteria, dishes were rinsed with fresh HL5-C, and the infected cell population was resuspended in HL5-C with 5 U/mL penicillin and 5 μg/mL streptomycin (Gibco) to inhibit the extracellular growth of bacteria during the course of the experiment.
(§4) For testing fractions and purified compounds, 20 μL of infected cell suspension was plated into each well of a 384-well plate (Interchim FP-BA8240) to an effective cell number of 1 × 10^4 cells per well. Fractions or compounds including a vehicle control (0.3% DMSO final concentration) and a positive control (rifabutin, 10 μM final concentration) were added using an electronic multipipette (Sartorius). Subsequently, the well plates were sealed with a gas impermeable membrane (H769.1, Carl Roth), briefly centrifuged, and intracellular bacterial growth was monitored using an Agilent BioTek H1 plate reader and an Agilent BioTek BioStack plate stacker by recording luminescence over 72 h at 25 °C with readings taken every hour. Fluorescence was also recorded to monitor amoeba growth.
(§5) For both assays, growth curves were obtained by measuring the luminescence and fluorescence as a proxy for bacterial growth and host growth, respectively, for 72 h with time-points taken every hour. The “normalized residual growth” was computed by calculating the area under the curve (AUC, trapezoid method) and normalizing it to the vehicle control (0.3% DMSO, set at 1) and a baseline curve (set at 0). The baseline curve was calculated by taking the median of the first measurement of all wells in a plate and extrapolating it over the complete time course. The threshold for hit detection was arbitrarily fixed at a cutoff of normalized residual growth ≤0.5. Normalized values were averaged over technical and biological replicates (all experiments on isolated compounds have at least n = 3 and N = 3, whereas the primary extract screening and microfractions testing had values of n = 1 and N = 3). […]

[3] = tested on: Dictyostelium discoideum (Dd) in infection; assay: Dd-Mm infection assay: host amoeba growth (fluorescence); conditions: infected Dd, fluorescence AUC over 72 h at 25 °C, 6-concentration curve, top 100 μM, 1:3 steps, IC50 interpolated
Protocol: as §1, §2, §3, §4, §5

[4] = tested on: Mycobacterium marinum (Mm) in broth; assay: Mm growth in broth (antibiotic assay, luminescence); conditions: 72 h; for IC50: read-out: IC50 on Mm in broth
Protocol: as §1, with “Extracts, fractions, and compounds were resuspended throughout in DMSO to best solubilize extracts with diverse constituents.” left out
For testing bacteria in broth, the preculture was diluted to a bacterial density of 3.75 × 10^5 bacteria per mL in 7H9 medium. Plating bacteria and compounds or fractions was performed analogously to the infection assay described above. Bacteria growth was monitored with the Agilent BioTek H1 plate reader by recording luminescence at 32 °C.
For both assays, growth curves were obtained by measuring the luminescence and fluorescence as a proxy for bacterial growth and host growth, respectively, for 72 h with time-points taken every hour. The “normalized residual growth” was computed by calculating the area under the curve (AUC, trapezoid method) and normalizing it to the vehicle control (0.3% DMSO, set at 1) and a baseline curve (set at 0). The baseline curve was calculated by taking the median of the first measurement of all wells in a plate and extrapolating it over the complete time course. The threshold for hit detection was arbitrarily fixed at a cutoff of normalized residual growth ≤0.5.
This procedure was also applied to screening extracts with slight modifications. The day before the experiment we preplated 10 μL of HL5-C using a dispenser (Thermo Multidrop), subsequently we preplated 2.2 μL of dissolved extracts from 96-well plates into quadrants 1, 2, and 3 of 384-well plates, whereas quadrant 4 was used for positive and vehicle controls. Preplating of extracts was performed using a liquid handler (Agilent Bravo). In total, 24 extract plates were distributed in triplicate into […] 384-well plates, amounting to 24 assay plates. The prepared plates were sealed and stored at 4 °C overnight. On the day of the experiment, nine 10 cm Petri dishes were infected (as described before) and grouped into three pools. The cell suspension was adjusted to 10^6 cells/mL, and 10 μL was plated into the 24 assay plates, resulting in 10^4 cells per well, as used for conventional infection experiments. Plates were sealed and placed in the plate stacker that supplied the plate reader. The same procedure was used to screen the same extracts on Mm in a broth. For both assays, the first time points and a time point after 72 h were recorded. Subsequently, we normalized the end point, first with the median of the full assay plate at the first time point and second with the end point of the vehicle controls in the respective assay plate.
For IC50 estimation, we used a rudimentary approach of interpolating the sample concentration between the two normalized residual growth values, which were closest to a value of 0.5.

[5] = Mm in 7H9 broth, luminescence at 32 °C, IC50 interpolated

| Compound | MIC on Sa [1] | MIC [1] [µg/mL] | IC50 [2] [µM] | IC50 ([3]; Dictyostelium discoideum) [µM] | IC50 on Mm in broth [4, 5] | IC50 [3] [µM] | IC50 [4, 5] [µM] | IC50 ([4]; Mycobacterium marinum) [µM] | IC50 on Mm in infection [2] | IC50 on Dd in infection [3] |
| --- | --- | --- | --- | --- | --- | --- | --- | --- | --- | --- |
| CC(=O)c1c(O)cc(O)cc1CCCCCCc1ccccc1 [Compound 4, Knemolone C] | 4 μg·mL^–1 | 4 (≈ 12.8 µM) | 22.2 | 22.2 | not active |  |  |  |  |  |
| CCCCCCCCCCCCCc1cccc(O)c1C(=O)O [Compound 12, 6-Tridecylsalicylic acid] | Not active |  | 66.7 | 66.7 | Not active |  |  |  |  |  |
| CC(=O)c1ccc(O)c(Br)c1O [Compound 18, 3-Bromo-2,4-dihydroxyacetophenone] | not active |  | 66.7 | 66.7 | not active |  |  |  |  |  |
| CC(=O)c1ccc(O)c(Cl)c1O [Compound 15, 3-Chloro-2,4-dihydroxyacetophenone] | not active |  | 22.2 | 22.2 | not active |  |  |  |  |  |
| CC(=O)c1c(O)cc(O)cc1CCCCc1ccccc1 [Compound 2, Knemolone B] |  | 32 (≈ 113 µM) | 22.2 | 22.2 | Not active |  |  |  |  |  |
| CCCCCCCCCc1cccc(O)c1C(=O)O [Compound 8, Khookerianic acid A] |  | 8 (≈ 30.3 µM) | 2.47 | 2.47 | not active |  |  |  |  |  |
| 3,5-Dichloro-2,4-dihydroxychalcone [Compound 23] | 4 μg·mL^–1 and 4 mg·L–1 |  | 1.76 |  |  | 1.76 | 47.6 |  |  |  |
| O=C(O)c1c(O)cccc1CCCCCCc1ccccc1 [Compound 7, Knemolic acid C] |  | 8 (≈ 26.8 µM) | 7.41 | 7.41 | not active |  |  |  |  |  |
| 5-Bromo-2,4-dihydroxychalcone [Compound 25] | not active |  | 0.82 |  |  | 0.82 | 66.7 |  |  |  |
| 2,4-Dihydroxychalcone [Compound 14] | 32 mg·L–1 |  | 2.47 |  |  | 7.41 | 66.7 |  |  |  |
| O=C(/C=C/c1cccc2ccccc12)c1cc(Cl)c(O)cc1O [Compound 26, (E)-1-(5-Chloro-2,4-dihydroxyphenyl)-3-(naphthalen-1-yl)prop-2-en-1-one] | not active |  | 0.59 | 1.47 |  |  |  | 47.6 |  |  |
| CCCCCCCCCc1cc(O)cc(O)c1C(C)=O [Compound 5, Knemolone D] |  | 2 (≈ 7.18 µM) |  | 22.2 | Not active |  |  |  | Not active |  |
| CC(=O)c1c(O)cc(O)c(Cl)c1CCCCCCc1ccccc1 [Compound 28, 1-(3-Chloro-4,6-dihydroxy-2-(6-phenylhexyl)phenyl)ethan-1-one] |  | 4 (≈ 11.5 µM) | 2.47 | 0.82 |  |  |  | 22.2 |  |  |
| O=C(O)c1c(O)cccc1CCCCCCc1ccc2c(c1)OCO2 [Compound 6, Knemolic acid B] |  | 8 (≈ 23.4 µM) | 7.41 | 7.41 | Not active |  |  |  |  |  |
| CO[C@H]1/C=C/O[C@@]2(C)Oc3c(C)c(O)c4c(c3C2=O)C2=NC3(CCN(CC(C)C)CC3)NC2=C(NC(=O)/C(C)=C\C=C\[C@H](C)[C@H](O)[C@@H](C)[C@@H](O)[C@@H](C)[C@H](OC(C)=O)[C@@H]1C)C4=O [rifabutin, reference compound] |  |  | 0.2 |  |  |  |  | 0.03 |  | not active |
| 3-Bromo-2,4-dihydroxychalcone [Compound 24] | 64 mg·L–1 |  | 2.47 |  | not active | 2.47 |  |  |  |  |
| CC(=O)c1cc(Br)c(O)c(Br)c1O [Compound 20, 3,5-Dibromo-2,4-dihydroxyacetophenone] | not active |  | 66.7 | 66.7 | not active |  |  |  |  |  |
| CC(=O)c1cc(Cl)c(O)c(Cl)c1O [Compound 17, 3,5-Dichloro-2,4-dihydroxyacetophenone] | not active |  | 66.7 | 66.7 | not active |  |  |  |  |  |
| CC(=O)c1cc(Cl)c(O)cc1O [Compound 16, 5-Chloro-2,4-dihydroxyacetophenone] | not active |  | 22.2 | 22.2 | not active |  |  |  |  |  |
| CC(=O)c1c(O)c(Cl)c(O)c(Cl)c1CCCCCCc1ccccc1 [Compound 29, 1-(3,5-Dichloro-2,4-dihydroxy-6-(6-phenylhexyl)phenyl)ethan-1-one] |  | 4 to 8 (≈ 10.5 to 21 µM) | 2.47 | 7.41 | not active |  |  |  |  |  |
| 5-Chloro-2,4-dihydroxychalcone [Compound 22] | 32 μg·mL^–1 and 32 mg·L–1 |  | 1.76 |  |  | 1.76 | 47.6 |  |  |  |
